Results reported in patent US20140066438A1, “DOPAMINE RECEPTOR D2 ANTAGONIST FOR PREVENTION AND TREATMENT OF FLAVIVIRUS INFECTION” (Academia Sinica, priority 2012, published 2014).

How the values were obtained:
DENV-2 [1] = experiment: D2R dependence of PCZ inhibition of DENV-2 binding in N18, shLacZ-N18 and shD2R-N18 cells (NS3 Western blot); format: cell-based, Dengue virus serotype 2
Procedure: The lentivirus vector pLKO.1 carrying a short hairpin RNA (shRNA) targeting the mouse dopamine D2 receptor (5′-[…]-3′, SEQ ID NO: 1) or LacZ (5′-[…]-3′, SEQ ID NO: 2) from the Taiwan National RNAi Core Facility was cotransfected with pMD.G and pCMVΔR8.91 into HEK293T cells by use of Lipofectamine 2000 (INVITROGEN™). The lentiviruses were harvested from culture supernatants and concentrated by ultracentrifugation at 35,000 rpm in a Beckman SW41 rotor for 3.5 h at 4° C. The viral pellets were resuspended and used to transduce N18 cells. The D2R-deficient N18 cells (shD2R-N18) and LacZ-control cells (shLacZ-N18) were selected with puromycin (5 μg/ml).

DENV-2 [2] = experiment: Cell-based antiviral assay against DENV-2 (IFA, immunoblotting of NS3, plaque-forming assay); set-up: species or system Dengue virus serotype 2 (PL046 strain); conditions: Dengue virus, DENV2, HEK-293T, read-out: half-maximal effective concentration (EC50) against DENV-2 infection
Procedure: (A) PCZ cytotoxicity test. HEK293T cells were treated with solvent control or the indicated concentrations of PCZ for 24 h. AlamarBlue, XTT, and LDH assays were carried out to determine cell viability, cell proliferation, and cytotoxicity, respectively. Data are mean and standard deviation (SD) of 3 independent experiments. […] Representative immunofluorescence microscopy (400× magnification) of cells immunostained for DENV-2 NS3 (green) and DAPI for nuclei (blue). […] Plaque-forming assay of viral progeny production (plaque forming unit, PFU/ml) in culture supernatants of cells in panel C (D). Data are mean and SI) of 2 independent experiments. *P<0.05.
(A) PCZ cytotoxicity test. HEK293T cells were treated with solvent control or the indicated concentrations of PCZ (5, 10, 15, 20 and 25 μM). AlamarBlue, XTT and LDH assays were carried out to determine cell viability, cell proliferation, and cytotoxicity, respectively. […] (D) Plaque-forming assay of viral progeny production (plaque forming unit, PFU/ml): Data are mean and SD of two independent experiments. **P<0.01. […] BHK-21 cells (E) and N18 cells (F) infected with DENV-2 (MOI=0.1) were treated with or without PCZ for 2 days and 1 day, respectively.
HEK293T cells were infected with DENV-2 (MOI=0.1) with or without haloperidol for 1 day.
Monolayers of cells (HEK293T, BHK-21 and N18) in 6- or 12-well plates were infected with DENV-2 at the indicated multiplicity of infection (MOI). Virus was adsorbed for 2 h with the indicated concentrations of PCZ, then cells were washed thoroughly to remove unbound viruses and incubated for an additional 24 to 48 h with or without PCZ. The antiviral effect of PCZ was evaluated by immunofluorescence assay (IFA), immunoblotting and plaque-forming assay.
Cells were fixed with 4% PFA and permeabilized with 0.5% Triton X-100 in PBS.

CN1CCN(CCCN2c3ccccc3Sc3ccc(Cl)cc32)CC1 [PCZ, prochlorperazine]
antiviral effect of PCZ given during binding (NS3) (DENV-2 [1]; N18 cells): noted | antiviral effect of PCZ given during binding (NS3) (DENV-2 [1]; shD2R-N18 cells (D2R-deficient)): not | antiviral effect of PCZ given during binding (NS3) (DENV-2 [1]; shLacZ-N18 cells (control knockdown)): noted | EC50 (DENV-2 [2]): 88.4 nM
